Laboratory results: patent EP4353712A1 (Biodol Therapeutics, priority 2022, dated 2024)

Molecular target: T1, FLT3 (Homo sapiens, UniProt P36888)
T1 construct: expressed in transfected cells; host or cells: HEK293T
T1 sequence (P36888 27-993): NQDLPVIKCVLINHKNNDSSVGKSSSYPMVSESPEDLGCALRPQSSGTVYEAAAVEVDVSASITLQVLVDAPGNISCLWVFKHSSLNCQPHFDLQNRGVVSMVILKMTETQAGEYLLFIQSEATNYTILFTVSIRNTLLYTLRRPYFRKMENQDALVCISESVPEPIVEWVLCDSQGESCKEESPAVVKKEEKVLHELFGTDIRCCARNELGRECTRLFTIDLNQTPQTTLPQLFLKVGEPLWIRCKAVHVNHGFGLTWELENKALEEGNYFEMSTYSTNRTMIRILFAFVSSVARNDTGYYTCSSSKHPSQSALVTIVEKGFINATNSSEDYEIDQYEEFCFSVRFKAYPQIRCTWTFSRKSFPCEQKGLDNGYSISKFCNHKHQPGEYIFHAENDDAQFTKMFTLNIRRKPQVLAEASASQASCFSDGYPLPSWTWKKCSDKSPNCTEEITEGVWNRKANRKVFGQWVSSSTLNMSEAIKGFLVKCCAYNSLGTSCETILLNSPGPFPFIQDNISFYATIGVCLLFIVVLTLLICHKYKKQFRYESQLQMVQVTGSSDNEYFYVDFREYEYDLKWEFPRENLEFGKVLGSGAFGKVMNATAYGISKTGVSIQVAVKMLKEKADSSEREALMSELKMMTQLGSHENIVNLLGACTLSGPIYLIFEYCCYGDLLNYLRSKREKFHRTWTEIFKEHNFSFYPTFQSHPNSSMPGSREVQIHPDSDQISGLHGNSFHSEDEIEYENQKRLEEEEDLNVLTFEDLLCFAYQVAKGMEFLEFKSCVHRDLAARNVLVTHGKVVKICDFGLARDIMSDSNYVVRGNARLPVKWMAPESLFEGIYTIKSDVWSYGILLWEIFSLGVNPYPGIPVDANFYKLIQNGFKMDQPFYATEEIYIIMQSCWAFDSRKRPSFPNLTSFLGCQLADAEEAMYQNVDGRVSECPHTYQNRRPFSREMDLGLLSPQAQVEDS
Test: HTRF binding assay of FL to FLT3 (TR-FRET, SNAP-FLT3 transfected HEK293T cells)
Conditions: HEK293T cells transfected with SNAP-FLT3, labelled with SNAP-Lumi4-Tb; compounds 1 h at room temperature, then FL-d2 (0.5 nM), read after 20 h; 12 dilutions in triplicates, performed twice; read-out: Inhibition of FLT3 binding IC50, binding
Protocol: The binding of FL to FLT3 was measured by a Homologous Time-Resolved Fluorescence (HTRF) assay (Degorce et al., Current Chemical Genomics, 2009, 3, 22-32), which involves resonance energy transfer between a donor, Lumi4-Tb-donor-derivatized benzylguanine substrate (SNAP-Lumi4-Tb, excitation: 337 nm, emission: 630 nm, Cisbio, France), transfected in HEK cells, and an acceptor, red fluorescent FL (FL-d2, excitation: 620 nm, emission: 660 nm, Cisbio, France). When FL-d2 binds to the SNAP-Lumi4-Tb-tagged FLT3 receptor, the proximity of both fluorophores allows the time-resolved Förster resonance energy transfer (TR-FRET) signal to occur and the binding is measured as the ratio between the fluorescent emissions at 660 to 620 nm.
The detailed method is described in Rivat et al. (Nature Communications, 2018, 9 :1042). Briefly, HEK293T cells were transfected with a pCDNA3.1 SNAP-FLT3 plasmid by using Lipofectamine (Invitrogen), and were than labelled with SNAP-Lumi4-Tb. Plates containing attached transfected HEK293T cells were incubated with compounds of formula (I) for 1 h at room temperature. A series of 12 dilutions in triplicates was used for each compound and the experiment was performed twice. Then FL-d2 (0.5 nM) was added and the TR-FRET signal was read after 20 h incubation at room temperature with a HTRF-compatible reader (Envision, Perkin Elmer) allowing a donor excitation at 337 nm and a signal collection both at 615 nm and 665 nm (20 flashes, delay 50 µs, integration time 400 µs). Then HTRF ratio, obtained by dividing the acceptor signal (665 nm) by the donor signal (615 nm), was calculated at each concentration of test compounds. Non-specific binding was measured in the presence 50 µM of BDT001 (Rivat et al., ibid.). Concentration giving 50 % inhibition (IC50) were calculated by non-linear regression analysis for a one-site model, with variable slope (Prism®, Graphpad software, USA).

SMILES	IC50 [nM]
CN1CCC(c2ccc(C(=O)Nc3ccc(F)c4cccnc34)cc2)CC1 [(1), N-(5-fluoroquinolin-8-yl)-4-(1-methylpiperidin-4-yl)benzamide]	1200
CN1CCC(c2ccc(C(=O)Nc3ccc(F)c4cnccc34)cc2)CC1 [(2), N-(8-fluoroisoquinolin-5-yl)-4-(1-methylpiperidin-4-yl)benzamide]	1400
CN1CCC(c2ccc(C(=O)Nc3ccc(F)c4ccncc34)cc2)CC1 [(3), N-(5-fluoroisoquinolin-8-yl)-4-(1-methylpiperidin-4-yl)benzamide]	1800
CN1CCC(c2ccc(C(=O)Nc3ccc(F)c4ncccc34)cc2)CC1 [(4), N-(8-fluoroquinolin-5-yl)-4-(1-methylpiperidin-4-yl)benzamide]	5300
CN1CCC(c2ccc(C(=O)Nc3ccc(F)c4nccnc34)cc2)CC1 [(5), N-(8-fluoroquinoxalin-5-yl)-4-(1-methylpiperidin-4-yl)benzamide]	400
CN1CCC(c2ccc(C(=O)Nc3cccc4ncccc34)cc2)CC1 [(6), 4-(1-methylpiperidin-4-yl)-N-(quinolin-5-yl)benzamide]	1300
CN1CCC(c2ccc(C(=O)Nc3cccc4cnccc34)cc2)CC1 [(7), N-(isoquinolin-5-yl)-4-(l-methylpiperidin-4-yl)benzamide]	800
CN1CCC(c2ccc(C(=O)Nc3cccc4ccncc34)cc2)CC1 [(8), N-(isoquinolin-8-yl)-4-(1-methylpiperidin-4-yl)benzamide]	800
CN1CCC(c2ccc(C(=O)Nc3cccc4cccnc34)cc2)CC1 [(9), 4-(1-methylpiperidin-4-yl)-N-(quinolin-8-yl)benzamide]	1500
CN(C)CCOc1ccc(C(=O)Nc2cccc3ccncc23)cc1 [(10), 4-[2-(dimethylamino)ethoxy]-N-(isoquinolin-8-yl)benzamide]	800
CN(C)CCOc1ccc(C(=O)Nc2cccc3cccnc23)cc1 [(11), 4-[2-(dimethylamino)ethoxy]-N-(quinolin-8-yl)benzamide]	2900
CN1CCC(c2ccc(C(=O)Nc3cccc4cccnc34)c(F)c2)CC1 [(12), 2-fluoro-4-(1-methylpiperidin-4-yl)-N-(quinolin-8-yl)benzamide]	1800
CN1CCC(c2ccc(C(=O)Nc3cccc4cnccc34)cc2F)CC1 [(13), 3-fluoro-N-(isoquinolin-5-yl)-4-(1-methylpiperidin-4-yl)benzamide]	1400
CN(C)CCOc1ccc(C(=O)Nc2cccc3cnccc23)cc1 [(14), 4-(2-(dimethylamino)ethoxy)-N-(isoquinolin-5-yl)benzamide]	900
CN(C)CCOc1ccc(C(=O)Nc2cccc3ncccc23)cc1 [(15), 4-(2-(dimethylamino)ethoxy)-N-(quinolin-5-yl)benzamide]	1700
COc1cc(C2CCN(C)CC2)ccc1C(=O)Nc1cccc2cccnc12 [(16), 2-methoxy-4-(1-methylpiperidin-4-yl)-N-(quinolin-8-yl)benzamide]	600
COc1cc(C(=O)Nc2cccc3cnccc23)ccc1C1CCN(C)CC1 [(17), N-(isoquinolin-5-yl)-3-methoxy-4-(1-methylpiperidin-4-yl)benzamide]	900
CN1CCC(c2ccc(C(=O)Nc3cccc4cccnc34)c(C(F)(F)F)c2)CC1 [(18), 4-(1-methylpiperidin-4-yl)-N-(quinolin-8-yl)-2-(trifluoromethyl)benzamide]	1700
CN(C)CCOc1ccc(C(=O)Nc2cccc3cnncc23)cc1 [(19), 4-[2-(dimethylamino)ethoxy]-N-(phthalazin-5-yl)benzamide]	25000

SMILES	IC50 [nM]
CN(C)CCOc1ccc(C(=O)Nc2ccc(F)c3ncccc23)cc1 [(20), 4-(2-(dimethylamino)ethoxy)-N-(8-fluoroquinolin-5-yl)benzamide]	6200
CN1CCC(c2ccc(C(=O)Nc3cccc4cnccc34)cc2C#N)CC1 [(21), 3-cyano-N-(isoquinolin-5-yl)-4-(1-methylpiperidin-4-yl)benzamide]	2000
CN(C)CCOc1ccc(C(=O)Nc2ccc(F)c3ccncc23)cc1 [(22), 4-(2-(dimethylamino)ethoxy)-N-(5-fluoroisoquinolin-8-yl)benzamide]	1900
CN(C)CCOc1ccc(C(=O)Nc2ccc(F)c3nccnc23)cc1 [(23), 4-(2-(dimethylamino)ethoxy)-N-(8-fluoroquinoxalin-5-yl)benzamide]	500
CN1CCN(c2ccc(C(=O)Nc3cccc4cnccc34)cc2F)CC1 [(24), 3-fluoro-N-(isoquinolin-5-yl)-4-(4-methylpiperazin-1-yl)benzamide]	1100
CN1CCC(c2ccc(C(=O)Nc3cccc4cnccc34)c(S(C)(=O)=O)c2)CC1 [(25), N-(isoquinolin-5-yl)-2-methanesulfonyl-4-(1-methylpiperidin-4-yl)benzamide]	2600
CN(C)CCOc1ccc(C(=O)Nc2ccc(F)c3cccnc23)cc1 [(26), 4-[2-(dimethylamino)ethoxy]-N-(5-fluoroquinolin-8-yl)benzamide]	1400
CN1CCC(c2ccc(C(=O)Nc3cccc4ncccc34)cc2C(F)(F)F)CC1 [(27), 4-(1-methylpiperidin-4-yl)-N-(quinolin-5-yl)-3-(trifluoromethyl)benzamide]	3600
CN1CCC(c2ccc(C(=O)Nc3cccc4nccnc34)cc2)CC1 [(28), 4-(1-methylpiperidin-4-yl)-N-(quinoxalin-5-yl)benzamide]	400
Cc1cc(C(=O)Nc2cccc3ncccc23)ccc1N1CCN(C)CC1 [(29), 3-methyl-4-(4-methylpiperazin-1-yl)-N-(quinolin-5-yl)benzamide]	1200
CN1CCC(c2ccc(C(=O)Nc3ccc(Cl)c4ncccc34)cc2)CC1 [(30), N-(8-chloroquinolin-5-yl)-4-(1-methylpiperidin-4-yl)benzamide]	1900
CN(C)CCOc1ccc(C(=O)Nc2cccc3nccnc23)cc1 [(31), 4-[2-(dimethylamino)ethoxy]-N-(quinoxalin-5-yl)benzamide]	700
CN(C)CCOc1ccc(C(=O)Nc2ccc(Cl)c3ncccc23)cc1 [(32), N-(8-chloroquinolin-5-yl)-4-[2-(dimethylamino)ethoxy]benzamide]	2400
CN(C)CCOc1ccc(C(=O)Nc2ccc(F)c3cnccc23)cc1 [(33), 4-[2-(dimethylamino)ethoxy]-N-(8-fluoroisoquinolin-5-yl)benzamide]	2300
COc1ccc(NC(=O)c2ccc(OCCN(C)C)cc2)c2ccncc12 [(34)]	500
CN1CCN(c2ccc(C(=O)Nc3cccc4cccnc34)cc2)CC1 [(35), 4-(4-methylpiperazin-1-yl)-N-(quinolin-8-yl)benzamide]	1700
CN(C)CCOc1ccc(C(=O)Nc2cccc3ccncc23)cc1C#N [(36), 3-cyano-4-(2-(dimethylamino)ethoxy)-N-(isoquinolin-8-yl)benzamide]	2500
CN1CCN(c2ccc(C(=O)Nc3ccc(F)c4nccnc34)cc2)CC1 [(37), N-(8-fluoroquinoxalin-5-yl)-4-(4-methylpiperazin-1-yl)benzamide]	700
CN1CCN(c2ccc(C(=O)Nc3cccc4ccncc34)cc2)CC1 [(38), N-(isoquinolin-8-yl)-4-(4-methylpiperazin-1-yl)benzamide]	600
